Measured values from PMC10899662, “TopBP1 utilises a bipartite GINS binding mode to support genome replication” (Nature Communications, 2024).

Tests used:
[1] = test system: TopBP1-proximal proteins (Psf3, Psf2); test: APEX2 proximity biotinylation, streptavidin pulldown and mass spectrometry; type: cell-based, human; details: three proximity biotinylation experiments; + H2O2 vs - H2O2; four biological replicates
Description: Proximity labelling was performed in isogenic stable 293 Flip-In (Thermo Fisher; R75007) cells stably expressing TopBP1 N-terminal tagged with APEX2 or in 293T cells transiently expressing either N-terminal or C-terminally APEX2-tagged TopBP1. 24 h before transfection, 0.8 × 10^6 cells were seeded onto a 6-cm plate. For each condition, four dishes were separately transfected (biological replicates). One day after transfection, cells were incubated for 30 min with 500 µM biotin phenol at 37 °C, before incubation for 1 min at RT with or without (controls) 1 mM H2O2. The medium was discarded, and cells were washed three times with quenching buffer (10 mM sodium azide, 10 mM sodium ascorbate and 5 mM Trolox in Dulbecco’s PBS (Life Technologies 14190169). Cells were rinsed off the dishes with DPBS, transferred into reaction tubes before washing again with DPBS. Cells were lysed at 95 °C for 10 min in TSD buffer (50 mM Tris pH 7.5, 5 mM DTT and 1% SDS). Samples were diluted ten times with TNN buffer (20 mM Tris pH 7.9, 200 mM NaCl and 0.5% NP-40 alternative) and benzonase (75 U per sample) (Sigma E1014). Samples were incubated for 15 min at 4 °C and centrifuged at 21,000 × g for 2 min at 4 °C. Supernatants were incubated over night with 15 µl streptavidin sepharose beads (Sigma GE17-5113-01) at 4 °C. […]

[2] = test system: Sld5; test: Myc immunoprecipitation from transfected 293T cells, Sld5 co-IP; type: binding; details: transiently transfected 293T cell lysates, anti-Myc
Description: Transient transfections of 6xMyc-Tev2-TopBP1 into 293T cells (ATCC CRL-11268) were carried out using PEI (polyethyleneimine) according to a protocol kindly shared by David Cortez’ lab. 4 µg plasmid DNA in 100 µl DMEM (Thermofisher, 41965039) without penicillin-streptomycin were combined with 2.4 µl Polyethylenimin (Sigma, 408727; 10 mg/ml) and incubated for 20 min before addition to 4 × 10^6 cells on a 10-cm dish. Transfected cells were used 72 h post transfection. 72 h post transfection, 293T cells were lysed by douncing in ten times cell pellet volume of lysis buffer (20 mM HEPES pH 8.0, 150 mM NaCl, 0.1% (v/v) Tween-20, 0.5 mM TCEP, 2% (v/v) glycerol, protease inhibitor cocktail (Roche, Complete protease inhibitor cocktail, 05056489001)), and centrifuged at 20,000 × g for 15 min at 4 °C. The soluble supernatant was added to magnetic anti-Myc beads (5 µl slurry per sample; Thermofischer, 88842) and incubated for 2 h at 4 °C rotating. Cells equivalent to 50% of a 15 cm dish were used per sample. Beads were washed three times in lysis buffer with 5 min incubation each, and finally boiled in 50 µl Laemmli loading buffer (6.5% glycerol, 715 mM β-mercaptoethanol, 3% SDS, 62.5 mM Tris-HCl pH 7.9, 0.005% bromphenol blue).
Non-APEX2-bio=nylated samples (-H2O2) were used as controls. […] Immunoprecipitated TopBP1 was detected using Ponceau (Ponc.) staining. […]

| Molecule | enrichment of Psf3 upon streptavidin pulldown [1] | Sld5 co-immunoprecipitation [2] |
| --- | --- | --- |
| APEX2-tagged TopBP1: N- or C-terminally APEX2-tagged TopBP1 | specific enrichment of Psf3 |  |
| TopBP1-BRCT0-5: 6Myc-TEV2-tagged TopBP1-BRCT0-5 expressed in 293T cells (protein, left off: Strep, C-terminal, kept, 6Myc-TEV2-tagged TopBP1-BRCT0-5 expressed in 293T cells) MSRNDKEPFFVKFLKSSDNSKCFFKALESIKEFQSEEYLQIITEEEALKIKENDRSLYICDPFSGVVFDHLKKLGCRIVGPQVVIFCMHHQRCVPRAEHPVYNMVMSDVTISCTSLEKEKREEVHKYVQMMGGRVYRDLNVSVTHLIAGEVGSKKYLVAANLKKPILLPSWIKTLWEKSQEKKITRYTDINMEDFKCPIFLGCIICVTGLCGLDRKEVQQLTVKHGGQYMGQLKMNECTHLIVQEPKGQKYECAKRWNVHCVTTQWFFDSIEKGFCQDESIYKTEPRPEAKTMPNSSTPTSQINTIDSRTLSDVSNISNINASCVSESICNSLNSKLEPTLENLENLDVSAFQAPEDLLDGCRIYLCGFSGRKLDKLRRLINSGGGVRFNQLNEDVTHVIVGDYDDELKQFWNKSAHRPHVVGAKWLLECFSKGYMLSEEPYIHANYQPVEIPVSHKPESKAALLKKKNSSFSKKDFAPSEKHEQADEDLLSQYENGSSTVVEAKTSEARPFNDSTHAEPLNDSTHISLQEENQSSVSHCVPDVSTITEEGLFSQKSFLVLGFSNENESNIANIIKENAGKIMSLLSRTVADYAVVPLLGCEVEATVGEVVTNTWLVTCIDYQTLFDPKSNPLFTPVPVMTGMTPLEDCVISFSQCAGAEKESLTFLANLLGASVQEYFVRKSNAKKGMFASTHLILKERGGSKYEAAKKWNLPAVTIAWLLETARTGKRADESHFLIENSTKEERSLETEITNGINLNSDTAEHP |  | weak but specific signal |
